Data as given in US20130090371A1, “METHODS AND COMPOSITIONS FOR INHIBITION OF BETA2-ADRENERGIC RECEPTOR DEGRADATION” (PRESIDENT AND FELLOWS OF HARVARD COLLEGE, priority 2010, published 2013).
d = 2'-deoxy (DNA); r = 2'-OH (RNA)

What was measured:
β2AR [1] = assay: qRT-PCR of β2AR mRNA in HASM cells; type: cell-based, human; details: AAEST siRNA
surface β2-AR = assay: Surface β2-AR by FACS (α-Flag FITC) after AAEST siRNA; type: cell-based, human; details: text: HASM cells; legend FIG. 16A: HEK293 cells
β2AR [2] = assay: Baseline β2AR expression in cells after AAEST knockdown; type: cell-based
β2AR [3] = assay: Immunoblot of β2AR protein in human airway smooth muscle (HASM) cells
Experimental: Error bars represented the standard deviations; Student t-test * p<0.05, n=2. […] Indirect Immunofluorescence staining of β2AR and phase contract images are shown.
Three days after the inhibitor treatment cell lysates were collected and analyzed by immunoblotting. Three repeats were done with similar results.
Immunoblot analysis. 48 h post DNA transfection, cells were wash with PBS and lysed with NP-40 lysing buffer (50 mM Tris-HCl pH7.5, 150 mM NaCl, 0.5% Nonidet P-40) containing protease inhibitor cocktail (Roche). Protein samples were separated on NuPAGE 10% Bis-Tris gels (Invitrogen) and transferred to nitrocellulose membranes (Bio-Rad). Immunoblot signals were developed using SuperSignal West Pico Chemiluminescent Substrate (Pierce, Rockford, Ill., USA) and quantified by a Luminescence Imager or exposed to X-ray films.

wild-type β2AR [4] = target: T1, wild-type β2AR (Homo sapiens, UniProt P07550); assay: β2AR ubiquitination assay, wild-type β2AR cells; type: cell-based; details: ISO stimulation
T1 construct: expressed in transfected cells; host or cells: HEK293 (293.β2AR^WT)
Experimental: (§1) β2AR ubiquitination and degradation assays. Cells expressing […] or β2ARt were subjected to 10 μM ISO (Sigma) stimulation, lysed in 0.5% NP-40 lysis buffer and immunoblotted with anti-FLAG-HRP (Sigma). For β2AR ubiquitination, β2ARt or wt-β2AR expressing cells were first incubated with 10 μM alprenolol antagonist (Sigma) for 15 min (to reduce constitutive background ubiquitination), stimulated with 10 μM ISO and lysed in buffer supplemented with 10 mM N-ethylmaleimide (NEM; Sigma) to inhibit deubiquitinase activity. Anti-FLAG EZview beads (Sigma) used for the IP were subjected to three 10 min washes with lysis buffer and resuspended in 50 μl 2βLDS sample buffer (Invitrogen) containing 10% β-mercaptoethanol (Sigma) and analyzed by immunoblotting.

wild-type β2AR [5] = target: T1, wild-type β2AR; assay: Immunoblot of agonist-induced degradation of wild-type β2AR; type: cell-based; details: siRNA-transfected cells
Experimental: β2AR ubiquitination and degradation assays. Cells expressing PAR or β2ARt were subjected to 10 μM ISO (Sigma) stimulation, lysed in 0.5% NP-40 lysis buffer and immunoblotted with anti-FLAG-HRP (Sigma). For β2AR ubiquitination, β2ARt or wt-β2AR expressing cells were first incubated with 10 μM alprenolol antagonist (Sigma) for 15 min (to reduce constitutive background ubiquitination), stimulated with 10 μM ISO and lysed in buffer supplemented with 10 mM N-ethylmaleimide (NEM; Sigma) to inhibit deubiquitinase activity. Anti-FLAG EZview beads (Sigma) used for the IP were subjected to three 10 min washes with lysis buffer and resuspended in 50 μl 2βLDS sample buffer (Invitrogen) containing 10% β-mercaptoethanol (Sigma) and analyzed by immunoblotting.

NEDD4/β2AR = target: T2, NEDD4/β2AR (Homo sapiens, UniProt P07550); assay: IP assay of NEDD4/β2AR association in β2ARt-expressing cells; type: cell-based; details: presence or absence of ISO stimulation
T2 construct: a distally truncated form (after residue 385) of β2AR (β2ARt); expressed in transfected cells; host or cells: HEK293 cells stably expressing FLAG-β2ARt
Experimental: FIGS. 10A-10B show ARRDC3 is an essential adaptor for β2AR ubiquitination. […] Cells stably expressing FLAG-β2ARt were transfected with siRNAs targeting nothing (scrambled), ARRDC3, or β-arrestin-2 and then subjected to a treatment with vehicle or ISO. Anti-FLAG immunoprecipitates from the corresponding lysates and whole cell extracts (WCE) were analyzed by immunoblotting with the indicated antibodies. FIG. 10B is a schematic model of ARRDC3 functioning as an adaptor for β2AR ubiquitination.
Co-immunoprecipitations (co-IP). 293T cells were transfected using Fugene 6 (Roche) or Turbofect (Fermentas). 48 h later, cells were lysed, pre-cleared with protein A agarose, and HA- or FLAG-tagged proteins were IP-ed using anti-HA EZview or anti-FLAG EZview beads. Washed beads were resuspended in sample buffer and analyzed by immunoblotting. Where noted, cross-linking was achieved by incubation for 40 min with 2 mM crosslinker dithio-bismaleimidoethane (DTME; Pierce) in PBS containing 10 mM Hepes (pH 7.5), as previously described (Shenoy et al, 2008) with minor modifications. IP complexes were washed three times consecutively in lysis, high salt, and low salt buffers then resuspended in sample buffer before immunoblotting.

β2ARt [6] = target: T3, β2ARt (Homo sapiens, UniProt P07550); assay: Immunoblot of agonist-induced β2AR degradation in 293β2AR* / β2ARt cells; type: cell-based
T3 construct: a distally truncated form (after residue 385) of β2AR (β2ARt); expressed in transfected cells; host or cells: HEK293 (293.β2AR*)
Experimental: as §1

ARRDC3 = ARRDC3 protein knockdown by siRNA; type: cell-based, human
β2ARt [7] = target: T3, β2ARt; assay: β2AR ubiquitination assay, β2ARt cells; type: cell-based; details: ISO stimulation
Experimental: as §1

β2AR [8] = assay: Immunoblot of exogenously expressed β2AR in 293β2AR cells; type: cell-based, human; details: at a higher concentration; three days
Excerpt: Three repeats were done with similar results.

latrophilin 2 = assay: Quantitative real-time PCR of latrophilin 2 expression; type: cell-based, human; details: vs NT siRNA
Excerpt: FIG. 11A-11C show inhibition of an EST RNA (AA496068) increases latrophilin 2 expression and decreases β2-AR degradation. FIG. 11A show the genomic locus that is targeted by AA496068 EST shRNA (SEQ ID NO: 2). The shRNA corresponds to sequences in an EST AA496068, which is about 150 kb upstream of the latrophilin 2 gene, and binding of this shRNA […] (SEQ ID NO: 2) activates latrophilin 2 and decreases β2-AR degradation. Thus SEQ ID NO: 2 serves as an activator or agonist of lactrophinin 2. The whole region covering the EST and latrophilin 2 is also annotated as KIAA0786. […] Cells were then labeled with anti-FLAG-FITC and analyzed by flow cytometry. FIG. 11B are histograms showing the distribution of cells treated with vehicle (upper panel) or ISO (lower panel) are shown above. […] Total RNA was isolated from cells transfected with NT or AA496068 EST siRNAs. Latrophilin 2 and AA496068 EST expression was determined by reverse transcription using random hexamers followed by quantitative real-time PCR.

## AAEST siRNA: 5′ UAAUAUUUAAUGAGGCGGCCUdTdT (SEQ ID NO: 34) and/or 5′ AGGCCGCCUCAUUAAAUAUUAdTdT (SEQ ID NO: 35) (chain 1 UAAUAUUUAAUGAGGCGGCCUTT; chain 2 AGGCCGCCUCAUUAAAUAUUATT; sugars from the 5' end r21 d2, backbone not given here)
β2AR [1]
  mRNA expression level of β2-adrenergic receptor: did not decrease the mRNA expression level
Surface β2-AR
  presence of β2-AR on the cell surface: decreases the presence of β2-AR on the surface
β2AR [2]
  baseline β2AR expression: an increase in baseline β2AR expression
β2AR [3]; western blot, FIG. 16B
  total β2-AR protein expression: decreased total β2-AR protein expression

## ARRDC3 siRNA: siRNA having the sequence GAACUGCUCUUCCCGAAUG (SEQ ID NO: 25) (chemistry not given here)
wild-type β2AR [4]
  reduction in ubiquitinated β2AR compared to ISO-treated control: −30%
wild-type β2AR [5]
  ISO-induced degradation of wild-type β2AR: blocked
NEDD4/β2AR
  association of NEDD4 with β2AR: completely abrogated
β2ARt [6]; ISO-induced degradation of β2ARt
  level of un-degraded receptor after ISO vs scrambled control siRNA: about 6 fold
β2ARt [6]; prior to ISO stimulation
  increase in basal level of the receptor: < 2 fold
ARRDC3
  knockdown of ARRDC3 protein expression: > 75%
β2ARt [7]
  reduction in normalized amount of ubiquitinated β2AR compared to ISO-treated control: −70%

## O=C(O)c1ccc2c3c1cccc3c(=O)n1c3ccccc3nc21 [STO-609]
β2AR [8]
  β2AR protein level: increased exogenously expressed β2AR protein
β2AR [3]; at as low as 2 μM, three days
  β2AR protein level: an increase in β2AR

## AA496068 EST siRNAs: siRNA having the sequence UAAUAUUUAAUGAGGCGGCCU (SEQ ID NO: 27) (listed as RNA, chemistry not given here)
Latrophilin 2
  latrophilin 2 expression: increases the expression of latrophilin 2
